The source of these data is patent US4864023A, “Pyrido(3,2,1-IJ)-1,3,4-benzoxadiazine derivatives” (priority 1988, dated 1989).

In series [1] the test system is Citrobacter freundii IFO 12681. The series can be described thus: in vitro antibacterial activity, standard agar dilution method. Format: cell-based. The note with it: IFO12681, aerobic, read-out: minimum inhibitory concentration (MIC). For orientation: In agar dilution the substance is mixed into plates at graded concentrations.
Series [2] relates to Pseudomonas stutzeri IFO 12695. Described as above. In kind it is cell-based. The note with it: Stutzerimonas stutzeri, IFO12695, aerobic, read-out: minimum inhibitory concentration (MIC).
For series [3], the system named is Serratia marcescens IFO 12648. The description is as above. Format: cell-based. The note with it: IFO12648, aerobic, read-out: minimum inhibitory concentration (MIC).
For series [4], the system named is Proteus vulgaris OX19 ATCC 6898. Described as above. Format: cell-based. The note with it: ATCC6898, aerobic, read-out: minimum inhibitory concentration (MIC).
Series [5] deals with Salmonella typhimurium IFO 12529. The description is as above. Format: cell-based. The note with it: Salmonella enterica, aerobic, read-out: minimum inhibitory concentration (MIC).
The test system of series [6] is Staphylococcus aureus NR 2855. The description is as above. The note with it: NR2855; Staphylococcus aureus NR 2855; aerobic; agar dilution; read-out: minimum inhibitory concentration (MIC). In kind it is cell-based.
Series [7] deals with Proteus rettgeri ATCC 14505. The description is as above. In kind it is cell-based. The note with it: Providencia rettgeri, ATCC14505, aerobic, read-out: minimum inhibitory concentration (MIC).
Series [8] concerns Staphylococcus aureus FDA 209P JC-1. The series is described as above. In kind it is cell-based. The note with it: FDA209P; Staphylococcus aureus FDA 209P JC-1; aerobic; agar dilution; read-out: minimum inhibitory concentration (MIC).
Series [9] has as its system Klebsiella pneumoniae FDA PCI 602. The description is as above. In kind it is cell-based. The note with it: FDAPCI602, aerobic, read-out: minimum inhibitory concentration (MIC).
The test system of series [10] is Enterobacter aerogenes NR 2945. Described as above. The note with it: Klebsiella aerogenes, NR2945, aerobic, read-out: minimum inhibitory concentration (MIC). Format: cell-based.
In series [11] the test system is Staphylococcus epidermidis IFO 12993. Described as above. In kind it is cell-based. The note with it: IFO12993, aerobic, read-out: minimum inhibitory concentration (MIC).
For series [12], the system named is Enterococcus faecalis NR 2943. The series is described as above. In kind it is cell-based. The note with it: NR2943, aerobic, read-out: minimum inhibitory concentration (MIC).
Series [13] has as its system Staphylococcus epidermidis NR 2942. The description is as above. Format: cell-based. The note with it: NR2942, aerobic, read-out: minimum inhibitory concentration (MIC).
Series [14] deals with Pseudomonas aeruginosa A3. The description is as above. Format: cell-based. The note with it: aerobic, read-out: minimum inhibitory concentration (MIC).
In series [15] the test system is Alcaligenes faecalis IFO 13111. The description is as above. Format: cell-based. The note with it: IFO13111, aerobic, read-out: minimum inhibitory concentration (MIC).
The subject of series [16] is Bacillus subtilis PCI 219. The description is as above. In kind it is cell-based. The note with it: PCI219, aerobic, read-out: minimum inhibitory concentration (MIC).
The subject of series [17] is Bordetella bronchiseptica ATCC 4617. The description is as above. In kind it is cell-based. The note with it: ATCC4617, aerobic, read-out: minimum inhibitory concentration (MIC).
The subject of series [18] is Escherichia coli NIHJ JC-2. Described as above. The note with it: NIHJJC2, aerobic, read-out: minimum inhibitory concentration (MIC). Format: cell-based.
Series [19] concerns Enterobacter cloacae NR 2946. The series is described as above. In kind it is cell-based. The note with it: NR2946, aerobic, read-out: minimum inhibitory concentration (MIC).
Series [20] has as its system Staphylococcus aureus Smith. The description is as above. Format: cell-based. The note with it: Staphylococcus aureus Smith; aerobic; agar dilution; read-out: minimum inhibitory concentration (MIC).
A short description of series [21]: acute toxicity by oral administration. The note with it: mouse, in vivo; oral administration, ICR mice; read-out: LD50. The source says: The acute toxicity of these compounds was examined by oral administration in ICR mice.
Series [22] relates to Pseudomonas aeruginosa NR 2950. The series can be described thus: in vitro antibacterial activity, standard agar dilution method. In kind it is cell-based. The note with it: NR2950, aerobic, read-out: minimum inhibitory concentration (MIC).
A further series has as its system Escherichia coli NR 2630. Described as above. In kind it is cell-based. The note with it: NR2630; Escherichia coli NR 2630; aerobic; agar dilution; read-out: minimum inhibitory concentration (MIC).

Broadly, the LD50 is the dose at which mortality reaches 50%.

Structures are written as SMILES. In brackets after ≈: the same amount, converted by molar mass.

For `CN1COc2c(N3CCCNCC3)c(F)cc3c(=O)c(C(=O)O)cn1c23` [Example 16], the MIC in [1] worked out at 0.1 µg/mL (≈ 0.276 µM); in series [2] it was 0.05 µg/mL (≈ 0.138 µM); in series [3] it was 0.39 µg/mL (≈ 1.08 µM); in series [4] it was 0.1 µg/mL (≈ 0.276 µM); in series [5], 0.1 µg/mL (≈ 0.276 µM); in series [6], 6.25 µg/mL (≈ 17.2 µM). The MIC in series [7] was determined as 1.56 µg/mL (≈ 4.31 µM); in series [8], 0.39 µg/mL (≈ 1.08 µM); in [9], 1.56 µg/mL (≈ 4.31 µM); in series [10], 0.05 µg/mL (≈ 0.138 µM); in series [11], 1.56 µg/mL (≈ 4.31 µM); in series [12], 25 µg/mL (≈ 69 µM). For the same compound, the MIC in series [13] was determined as 1.56 µg/mL (≈ 4.31 µM); in series [14] it was 0.39 µg/mL (≈ 1.08 µM); in [15] it was 50 µg/mL (≈ 138 µM); in [16] it was 0.2 µg/mL (≈ 0.552 µM); in series [17] it was 25 µg/mL (≈ 69 µM); in series [18] it was 0.2 µg/mL (≈ 0.552 µM). In addition, the results for the MIC in [19], in series [20] and in [22] were 0.1 µg/mL (≈ 0.276 µM), 0.39 µg/mL (≈ 1.08 µM) and 6.25 µg/mL (≈ 17.2 µM), respectively. Besides, the median lethal dose (LD50) in series [21] was above 2000 mg/kg.
On to `CN1COc2c(N3CCN(Cc4ccc(N)cc4)CC3)c(F)cc3c(=O)c(C(=O)O)cn1c23` [Example 53, 10-[4-(4-aminobenzyl)-1-piperazinyl]-9-fluoro-3-methyl-7-oxo-2,3-dihydro-7H-pyrido[3,2,1-ij]-1,3,4-benzoxadiazine-6-carboxylic acid], for which the MIC was found to be 0.1 µg/mL (≈ 0.221 µM) in series [1]; 0.2 µg/mL (≈ 0.441 µM) in [2]; 0.78 µg/mL (≈ 1.72 µM) in series [3]; 0.1 µg/mL (≈ 0.221 µM) in [4]; 0.1 µg/mL (≈ 0.221 µM) in series [5]; 0.1 µg/mL (≈ 0.221 µM) in series [6]. Further, the MIC came out at 1.56 µg/mL (≈ 3.44 µM) in series [7]; 0.1 µg/mL (≈ 0.221 µM) in [8]; 0.39 µg/mL (≈ 0.86 µM) in series [9]; 0.1 µg/mL (≈ 0.221 µM) in series [10]; 0.1 µg/mL (≈ 0.221 µM) in series [11]; 1.56 µg/mL (≈ 3.44 µM) in [12]. Besides, the MIC in series [13] stood at 0.1 µg/mL (≈ 0.221 µM); in [14], 0.78 µg/mL (≈ 1.72 µM); in series [15], 3.13 µg/mL (≈ 6.9 µM); in series [16], 0.025 µg/mL (≈ 0.0551 µM); in [17], 0.78 µg/mL (≈ 1.72 µM); in the series on Escherichia coli NR 2630 it was 0.05 µg/mL (≈ 0.11 µM). Also, the MIC in [18] stood at 0.2 µg/mL (≈ 0.441 µM); in series [19], 0.2 µg/mL (≈ 0.441 µM); in series [20] it was 0.05 µg/mL (≈ 0.11 µM); in [22], 12.5 µg/mL (≈ 27.6 µM).
Take `CN1COc2c(N3CCC(CN)C3)c(F)cc3c(=O)c(C(=O)O)cn1c23` (stereo not drawn) [Example 54, 10-[3-(aminomethyl)-1-pyrrolidinyl]-9-fluoro-3-methyl-7-oxo-2,3-dihydro-7H-pyrido[3,2,1-ij]-1,3,4-benzoxadiazine-6-carboxylic acid]: the MIC stood at 0.1 µg/mL (≈ 0.276 µM) in series [1]; 0.013 µg/mL (≈ 0.0359 µM) in series [2]; 0.39 µg/mL (≈ 1.08 µM) in series [3]; 0.013 µg/mL (≈ 0.0359 µM) in series [4]; 0.025 µg/mL (≈ 0.069 µM) in series [5]; 0.2 µg/mL (≈ 0.552 µM) in [6]. For the same compound, the MIC came to 0.78 µg/mL (≈ 2.15 µM) in series [7]; 0.013 µg/mL (≈ 0.0359 µM) in [8]; 0.78 µg/mL (≈ 2.15 µM) in [9]; 0.025 µg/mL (≈ 0.069 µM) in series [10]; 0.1 µg/mL (≈ 0.276 µM) in series [11]; 1.56 µg/mL (≈ 4.31 µM) in series [12]. The MIC in series [13] stood at 0.1 µg/mL (≈ 0.276 µM); in [14], 0.2 µg/mL (≈ 0.552 µM); in series [15], 6.25 µg/mL (≈ 17.2 µM); in series [16], 0.025 µg/mL (≈ 0.069 µM); in [17] it was 3.13 µg/mL (≈ 8.64 µM); with Escherichia coli NR 2630, 0.025 µg/mL (≈ 0.069 µM). Further, the MIC in [18] was 0.1 µg/mL (≈ 0.276 µM); in series [19] it was 0.1 µg/mL (≈ 0.276 µM); in series [20], 0.025 µg/mL (≈ 0.069 µM); in [22], 1.56 µg/mL (≈ 4.31 µM).
